Test results published in patent US20040043942A1, “Vitamin preparations for reducing oxygen consumption during physical efforts” (priority 1996, published 2004).
“And” between values parts separate entries of the source, which are not always exact repeats. Equal values may be shown once.

Columns and labels:
[1] = tested on: muscle glycogen synthesis; experiment: stimulation of glycogen synthesis and of anaerobic glucose breakdown in the muscle (general statement); format: in vivo; conditions: even if taken together with vitamin B1 and vitamin C
[2] = tested on: two male individuals, trained for endurance cycling; experiment: Example 39 a): ergometer test, medicaments and Preparations applied 15 minutes before the test; format: in vivo, human
Method: Analogously to Example 37, the following studies a) to c) were carried out on two male individuals, trained for endurance cycling and kept on a permanently carbohydrate-rich diet; individual A (weighing 67 kg) having a maximum oxygen uptake capacity of 3.3 l and an oxygen transport volume per heart beat of 29 ml (corresponding to 0.6 kJ), and individual B (weighing 74 kg) having a maximum oxygen uptake capacity of 4.5 l and an oxygen transport volume per heart beat of 36 ml (corresponding to 0.75 kJ). The following preparations were used, in which the indicated amounts correspond to one dose unit and which were obtained by dissolving or suspending the components in water and gelling the mixture:
H-Gly-Gly-OH was bought from Novabiochem, Läufelfingen, Switzerland. Insulin was injected subcutaneously, while the other medicaments were ingested alone or together with one of Preparations I-IV.
a) In a first study, insulin or antidiabetic sulphonylurea derivatives were applied, alone or in combination with gelatin and/or Preparation I or II, 15 minutes before the tests. In the tests, individual A was subjected to a workload of 100 W (60 r.p.m.) for 15 minutes (tests A1-A8), and individual B was subjected to a workload of 175 W (60 r.p.m.) for 10 minutes (tests B9-B29).

Row | Compound | stimulation of glycogen synthesis and of the anaerobic glucose breakdown in the muscle (in words) [1] | effect on heat production and oxygen consumption induced by constant physical work loads (in words) ([2]; applied 15 minutes before the test) | Oxygen consumption ([2]; individual B, 175 W for 10 min, 15 min before: 5 I.U. insulin s.c., 2.5 mg glibenclamide alone, with 5 mg gelatin: 100 μg glibenclamide or 10 mg chlorpropamide, Prep. one dose unit)
1 | O=C(CO)[C@@H](O)[C@H](O)[C@H](O)CO [fructose] | ineffective | – | –
2 | OC[C@H]1O[C@@](CO)(O[C@H]2O[C@H](CO)[C@@H](O)[C@H](O)[C@H]2O)[C@@H](O)[C@@H]1O [sucrose] | ineffective | – | –
3 | insulin | – | increase the heat production and oxygen consumption | 32 liter and 33 liter (2×)
